The conditions of data set [1]: cited from earlier work.

Molecules are shown by their SMILES. Where two headings read alike, the source gives them in different places.

For `CC[C@H]1OC(=O)[C@H](C)[C@@H](O[C@H]2C[C@@](C)(OC)[C@@H](O)[C@H](C)O2)[C@H](C)[C@@H](O[C@@H]2O[C@H](C)C[C@H](N(C)C)[C@H]2O)[C@](C)(O)C[C@@H](C)C(=O)[C@H](C)[C@@H](O)[C@]1(C)O` [erythromycin], the “cytoprotective effect of resin composition” value (from here on “cytoprotective effect”) in the data set with human cells is on record as “cytoprotective effect has been shown”.

One may read the logD as lipophilicity at a set pH, counting ionised and neutral species. On to `CCCc1nc(C)c2c(=O)[nH]c(-c3cc(S(=O)(=O)N4CCN(CC)CC4)ccc3OCC)nn12` [vardenafil], for which the values for the logD in data set [1] (pH 5.5) and in data set [1] (pH 7.4) were 2.26 and 3.71, respectively.

In the case of `CN1CCCC1c1cccnc1` (stereo not shown) [nicotine], in the data set on human cells, the “cytoprotective effect” value is listed as “cytoprotective effect has been shown”. The logD in data set [1] (pH 7.4) is given as −0.62.

Consider `CC(C)Cc1ccc(C(C)C(=O)O)cc1` (stereo not shown) [ibuprofen], for which the “cytoprotective effect” value with human cells was “cytoprotective effect has been shown”.

In the case of `O=C(O)Cc1ccccc1Nc1c(Cl)cccc1Cl` [diclofenac], in the data set with human cells, the “cytoprotective effect” value is “cytoprotective effect has been shown”.

Turning to `Cc1nccn1CC1CCc2c(c3ccccc3n2C)C1=O` (stereo not shown) [ondansetron], the “cytoprotective effect” value in the data set on human cells is on record as “cytoprotective effect has been shown”. Besides, the logD in data set [1] (pH 7.4) is recorded as 1.2.

Regarding `CCCc1nn(C)c2c(=O)[nH]c(-c3cc(S(=O)(=O)N4CCN(C)CC4)ccc3OCC)nc12` [sildenafil], the figures for the logD in data set [1] (pH 5.5) and in data set [1] (pH 7.4) were 1.83 and 2.26, respectively.

For the compound `Cc1nnc2n1-c1ccc(Cl)cc1C(c1ccccc1)=NC2` [alprazolam], the “cytoprotective effect” value with human cells is “cytoprotective effect has been shown”.

Consider `CNS(=O)(=O)CCc1ccc2[nH]cc(C3CCN(C)CC3)c2c1` [naratriptan], for which the logD in data set [1] (pH 7.4) is recorded as −0.85.

(Values after patent US20140371210A1, “METHODS AND COMPOSITIONS FOR RAPID TRANSBUCCAL DELIVERY OF ACTIVE AGENTS” (Jaleva Pharmaceuticals, LLC, priority 2011, published 2014).)
